Data on 50 compounds can be found in patent US11452717B2, “Small molecule activators of nicotinamide phosphoribosyltransferase (NAMPT) and uses thereof” (Sanford Burnham Prebys Medical Discovery Institute, priority 2017, dated 2022).

The test deals with NAMPT enzyme (Homo sapiens (Human), UniProt P43490). As to the kind of experiment: Enzyme Assay and NMN Detection (NAMPT reaction, fluorescence detection of NMN). In kind it is biochemical. The following applies: NAMPT activation, NMN formation. In short, it runs like this:
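NMN formed was read at ex380/em460 after acetophenone/KOH derivatization and formic acid addition, using a same-day calibration curve. Final conditions: NAMPT 16 nM, nicotinamide 5 uM, PRPP 6.25 uM, ATP 120 uM, pyrophosphatase 0.04 U/ml, pH 7.5 HEPES buffer with MgCl2 and TCEP, 2 h at room temperature.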

Each structure is given as a SMILES string. A value given as a limit tells only on which side of the number the result lay.

NAMPT enzyme, sequence (P43490 whole entry, species assumed): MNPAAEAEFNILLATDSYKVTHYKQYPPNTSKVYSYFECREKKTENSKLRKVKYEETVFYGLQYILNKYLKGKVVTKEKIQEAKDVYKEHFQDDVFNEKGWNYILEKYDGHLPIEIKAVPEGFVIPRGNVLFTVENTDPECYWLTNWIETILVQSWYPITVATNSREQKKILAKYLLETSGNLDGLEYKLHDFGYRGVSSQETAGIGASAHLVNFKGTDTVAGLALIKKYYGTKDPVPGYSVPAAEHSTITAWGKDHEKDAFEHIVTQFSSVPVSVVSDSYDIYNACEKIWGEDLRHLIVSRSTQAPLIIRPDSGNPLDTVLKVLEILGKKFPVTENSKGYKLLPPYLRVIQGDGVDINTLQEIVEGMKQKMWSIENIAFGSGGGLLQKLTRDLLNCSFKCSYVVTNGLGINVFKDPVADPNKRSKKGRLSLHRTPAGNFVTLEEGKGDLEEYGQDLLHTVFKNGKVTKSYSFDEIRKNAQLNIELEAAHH

What is called EC50 is the midpoint of the concentration-response curve. Read a low EC50 as an effect from little substance. Compound `CCOC(=O)c1ccc(NC(=O)NCC2CCNc3ccccc32)cc1` (stereo not drawn) [Ethyl 4-(3-((1,2,3,4-tetrahydroquinolin-4-yl)methyl)ureido)benzoate] displayed an EC50 (Table B-3) above 20 µM.
As for `CCOC(=O)c1ccc(NC(=O)NCc2cn(Cc3ccc(OC)cc3)nn2)cc1` [Ethyl 4-(3-((1-(4-methoxybenzyl)-1H-1,2,3-triazol-4-yl)methyl)ureido)benzoate], the EC50 (Table B-1) is above 20 µM.
Consider `CCOC(=O)c1ccc(NC(=O)NCc2cn(C)cn2)cc1` [Ethyl 4-(3-((1-methyl-1H-imidazol-4-yl)methyl)ureido)benzoate], for which the EC50 (Table B-1) was above 20 µM.
In turn, `CCOC(=O)c1ccc(NC(=O)NCc2cncn2C)cc1` [Ethyl 4-(3-((1-methyl-1H-imidazol-5-yl)methyl)ureido)benzoate] returned an EC50 (Table B-1) above 20 µM.
The same measure, in the same setting: the figure for `CCOC(=O)c1ccc(NC(=O)NCc2cnn(C)c2)cc1` [Ethyl 4-(3-((1-methyl-1H-pyrazol-4-yl)methyl)ureido)benzoate] is above 20 µM.
`CCOC(=O)c1ccc(NC(=O)NCc2ccnn2C)cc1` [Ethyl 4-(3-((1-methyl-1H-pyrazol-5-yl)methyl)ureido)benzoate] displayed an EC50 (Table B-1) above 20 µM.
Still for that read-out and setting: under `CCOC(=O)c1ccc(NC(=O)NCc2c[nH]nn2)cc1` [Ethyl 4-(3-((1H-1,2,3-triazol-4-yl)methyl)ureido)benzoate] stands above 20 µM.
On the same count and under the same terms, under `CCOC(=O)c1ccc(NC(=O)NCc2c[nH]cn2)cc1` [Ethyl 4-(3-((1H-imidazol-4-yl)methyl)ureido)benzoate] stands above 20 µM.
Same read-out and setting: the figure for `CCOC(=O)c1ccc(NC(=O)NCc2cnc[nH]2)cc1` [Ethyl 4-(3-((1H-imidazol-5-yl)methyl)ureido)benzoate] is above 20 µM.
Turning to `CCOC(=O)c1ccc(NC(=O)NCc2cc[nH]n2)cc1` [Ethyl 4-(3-((1H-pyrazol-3-yl)methyl)ureido)benzoate], under “Table B-1”, the EC50 is above 20 µM.
Turning to `CCOC(=O)c1ccc(NC(=O)NCc2cn[nH]c2)cc1` [Ethyl 4-(3-((1H-pyrazol-4-yl)methyl)ureido)benzoate], the EC50 (Table B-1) was in the range of 0.1 to 2 µM.
For `CCOC(=O)c1ccc(NC(=O)NCc2ccnc(N)c2)cc1` [Ethyl 4-(3-((2-aminopyridin-4-yl)methyl)ureido)benzoate], the EC50 (Table B-2) is above 20 µM.
On the same count and under the same terms, under `CCOC(=O)c1ccc(NC(=O)NCc2ccnc(Cl)c2)cc1` [Ethyl 4-(3-((2-chloropyridin-4-yl)methyl)ureido)benzoate] stands above 20 µM.
On the same count and under the same terms, the figure for `CCOC(=O)c1ccc(NC(=O)NCc2ccnc(F)c2)cc1` [Ethyl 4-(3-((2-fluoropyridin-4-yl)methyl)ureido)benzoate] is above 20 µM.
Turning to `CCOC(=O)c1ccc(NC(=O)NCc2ccnc(OC)c2)cc1` [Ethyl 4-(3-((2-methoxypyridin-4-yl)methyl)ureido)benzoate], for the setting “Table B-2”, the EC50 was above 20 µM.
`CCOC(=O)c1ccc(NC(=O)NCc2ccnc(C)c2)cc1` [Ethyl 4-(3-((2-methylpyridin-4-yl)methyl)ureido)benzoate]: for the setting “Table B-2”, the EC50 is above 20 µM.
On to `CCOC(=O)c1ccc(NC(=O)NCc2c(C)noc2C)cc1` [Ethyl 4-(3-((3,5-dimethylisoxazol-4-yl)methyl)ureido)benzoate], for which the EC50 (Table B-1) is above 20 µM.
On the same count and under the same terms, under `CCOC(=O)c1ccc(NC(=O)NCc2c[nH]nc2N)cc1` [Ethyl 4-(3-((3-amino-1H-pyrazol-4-yl)methyl)ureido)benzoate] stands above 20 µM.
Compound `CCOC(=O)c1ccc(NC(=O)NCc2ccncc2N)cc1` [Ethyl 4-(3-((3-aminopyridin-4-yl)methyl)ureido)benzoate] displayed an EC50 (Table B-2) above 20 µM.
As to `CCOC(=O)c1ccc(NC(=O)NCc2ccncc2Cl)cc1` [Ethyl 4-(3-((3-chloropyridin-4-yl)methyl)ureido)benzoate], the EC50 reads like this: (Table B-2) above 20 µM; (Table B-3) above 20 µM.
On to `CCOC(=O)c1ccc(NC(=O)NCc2ccncc2F)cc1` [Ethyl 4-(3-((3-fluoropyridm-4-yl)methyl)ureido)benzoate], for which, for the setting “Table B-2”, the EC50 was 0.1 to 2 µM.
Take `CCOC(=O)c1ccc(NC(=O)NCc2c[nH]nc2C)cc1` [Ethyl 4-(3-((3-methyl-1H-pyrazol-4-yl)methyl)ureido)benzoate]: where the note is “Table B-1”, the EC50 is above 20 µM.
Take `CCOC(=O)c1ccc(NC(=O)NCc2ccncc2C)cc1` [Ethyl 4-(3-((3-methylpyridin-4-yl)methyl)ureido)benzoate]: the EC50 (Table B-2) was above 20 µM.
Where the note is “Table B-1”, `CCOC(=O)c1ccc(NC(=O)NCc2cocn2)cc1` [Ethyl 4-(3-(oxazol-4-ylmethyl)ureido)benzoate] yielded an EC50 above 20 µM.
With `CCOC(=O)c1ccc(NC(=O)NCc2ccnnc2)cc1` [Ethyl 4-(3-(pyridazin-4-ylmethyl)ureido)benzoate], the EC50 (Table B-3) was above 20 µM.
As to `CCOC(=O)c1ccc(NC(=O)NCc2ccccn2)cc1` [Ethyl 4-(3-(pyridin-2-ylmethyl)ureido)benzoate], the EC50 (Table B-3) was above 20 µM.
Same read-out and setting: under `CCOC(=O)c1ccc(NC(=O)NCc2cccnc2)cc1` [Ethyl 4-(3-(pyridin-3-ylmethyl)ureido)benzoate] stands above 20 µM; under `CCOC(=O)c1ccc(NC(=S)NCc2ccncc2)cc1` [Ethyl 4-(3-(pyridin-4-ylmethyl)thioureido)benzoate], above 20 µM.
Same read-out and setting: under `CCOC(=O)c1ccc(NC(=O)NCc2cncnc2)cc1` [Ethyl 4-(3-(pyrimidin-5-ylmethyl)ureido)benzoate] stands above 20 µM; under `CCOC(=O)c1ccc(NC(=O)NCc2ccnc3ccccc23)cc1` [Ethyl 4-(3-(quinolin-4-ylmethyl)ureido)benzoate], above 20 µM; under `CCOC(=O)c1ccc(NC(=O)NCc2ccccc2)cc1` [Ethyl 4-(3-benzylureido)benzoate], above 20 µM.
The same measure, in the same setting: under `COC(=O)c1ccc(N(C)C(=O)NCc2ccncc2)cc1` [Methyl 4-(1-methyl-3-(pyridin-4-ylmethyl)ureido)benzoate] stands above 20 µM.
The compound `COC(=O)c1ccc(NC(=O)c2ccc(NC(=O)NCc3ccncc3)cc2)cc1` [Methyl 4-(4-(3-(pyridin-4-ylmethyl)ureido)benzamido)benzoate] returned an EC50 (Table B-2) of 0.1 to 2 µM.
Take `O=C(NCc1ccncc1)Nc1ccc(S(=O)(=O)N(Cc2ccccc2)Cc2ccccc2)cc1` [N,N-Dibenzyl-4-(3-pyridin-4-ylmethyl-ureido)-benzenesulfonamide]: under “Table B-2”, the EC50 is above 20 µM.
The same measure, in the same setting: under `CN(C)S(=O)(=O)c1ccc(NC(=O)NCc2ccncc2)cc1` [N,N-Dimethyl-4-(3-pyridin-4-ylmethy-ureido)-benzenesulfonamide] stands 2 to 5 µM; under `CCN(CC)C(=O)c1ccc(NC(=O)NCc2ccncc2)cc1` [N,N-diethyl-4-(3-(pyridin-4-ylmethyl)ureido)benzamide], above 20 µM.
On to `CN(C)C(=O)c1ccc(NC(=O)NCc2ccncc2)cc1` [N,N-dimethyl-4-(3-(pyridin-4-ylmethyl)ureido)benzamide], for which, where the note is “Table B-2”, the EC50 was above 20 µM.
Same read-out and setting: under `CN(C)S(=O)(=O)c1ccc(CNS(=O)(=O)c2ccc(NC(=O)NCc3ccncc3)cc2)cc1` [N,N-dimethyl-4-((4-(3-(pyridin-4-ylmethyl)ureido)phenylsulfonamido)methyl)benzenesulfonamide] stands 0.1 to 2 µM; under `CC(NS(=O)(=O)c1ccc(NC(=O)NCc2ccncc2)cc1)C1CCC1` (stereo not drawn) [N-(1-Cyclobutyl-ethyl)-4-(3-pyridin-4-ylmethyl-ureido)-benzenesulfonamide], 0.1 to 2 µM.
The same measure, in the same setting: the figure for `CCN1CCCC1CNS(=O)(=O)c1ccc(NC(=O)NCc2ccncc2)cc1` (stereo not drawn) [N-(1-Ethyl-pyrrolidin-2-ylmethyl)-4-(3-pyridin-4-ylmethyl-ureido)-benzenesulfonamide] is 0.1 to 2 µM.
The same measure, in the same setting: under `CN1CCC(NS(=O)(=O)c2ccc(NC(=O)NCc3ccncc3)cc2)C1` (stereo not drawn) [N-(1-Methyl-pyrrolidin-3-yl)-4-(3-pyridin-4-ylmethyl-ureido)-benzenesulfonamide] stands 2 to 5 µM; under `CC(NS(=O)(=O)c1ccc(NC(=O)NCc2ccncc2)cc1)c1ccccc1` (stereo not drawn) [N-(1-phenylethyl)-4-(3-(pyridin-4-ylmethyl)ureido)benzenesulfonamide], 0.1 to 2 µM; under `O=C(NCc1ccncc1)Nc1ccc(C(=O)Nc2ccc3c(c2)OCCO3)cc1` [N-(2,3-dihydrobenzo[b][1,4]dioxin-6-yl)-4-(3-(pyridin-4-ylmethyl)ureido)benzamide], 0.1 to 2 µM.
Turning to `CN(C)CCNC(=O)c1ccc(NC(=O)NCc2ccncc2)cc1` [N-(2-(dimethylamino)ethyl)-4-(3-(pyridin-4-ylmethyl)ureido)benzamide], where the note is “Table B-2”, the EC50 lay within 5 to 20 µM.
Still for that read-out and setting: the figure for `CN(C)c1ccccc1NC(=O)c1ccc(NC(=O)NCc2ccncc2)cc1` [N-(2-(dimethylamino)phenyl)-4-(3-(pyridin-4-ylmethyl)ureido)benzamide] is 0.1 to 2 µM; for `O=C(NCc1ccncc1)Nc1ccc(C(=O)NCCN2CCCCC2)cc1` [N-(2-(piperidin-1-yl)ethyl)-4-(3-(pyridin-4-ylmethyl)ureido)benzamide] it is 2 to 5 µM; for `O=C(NCc1ccncc1)Nc1ccc(S(=O)(=O)NCc2ccccc2Cl)cc1` [N-(2-Chloro-benzyl)-4-(3-pyridin-4-ylmethyl-ureido)-benzenesulfonamide] it is below 0.1 µM.
Compound `O=C(NCc1cn[nH]c1)Nc1ccc(S(=O)(=O)NCc2ccccc2Cl)cc1` [N-(2-Chloro-benzyl)-4-[3-(1H-pyrazol-4-ylmethyl)-ureido]-benzenesulfonamide] registered an EC50 (Table B-1) below 0.1 µM.
`CN(Cc1ccccc1Cl)S(=O)(=O)c1ccc(NC(=O)NCc2ccncc2)cc1` [N-(2-Chloro-benzyl)-N-methyl-4-(3-pyridin-4-ylmethyl-ureido)-benzenesulfonamide] had an EC50 (Table B-2) below 0.1 µM.
Where the note is “Table B-2”, `N#Cc1ccccc1CNS(=O)(=O)c1ccc(NC(=O)NCc2ccncc2)cc1` [N-(2-Cyano-benzyl)-4-(3-pyridin-4-ylmethyl-ureido)-benzenesulfonamide] yielded an EC50 of 0.1 to 2 µM.
